Test results: patent publication US20100143441A1 (OsteoGeneX Inc., priority 2008, published 2010)

Key:
Wnt pathway = details: Wnt+Sclerostin+2.5, 6.3, 12.5 or 25 ng nortriptyline; compared with Wnt only and Wnt+Sclerostin
Experimental: (§1) A general method of identifying SOST antagonists involves evaluating the effects of antagonist candidates on bone formation under controlled conditions. Preferably bone formation is determined using micro-CT techniques on live animals. Preferred animals include rodents, more preferred are primates. Femur, tibia and vertebrae bones are particularly useful subjects for such study.

SOST = SOST (Mus musculus, UniProt Q99P68); details: predetermined dose for a complete dosing schedule, micro-CT versus control mouse
Chain of SOST (Q99P68 24-211): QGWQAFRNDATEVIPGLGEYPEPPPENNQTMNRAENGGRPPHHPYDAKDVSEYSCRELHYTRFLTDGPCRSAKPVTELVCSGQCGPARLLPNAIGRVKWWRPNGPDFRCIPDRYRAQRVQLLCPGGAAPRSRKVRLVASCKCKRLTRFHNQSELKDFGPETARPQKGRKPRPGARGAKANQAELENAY
Experimental: as §1
Briefly, the test animal is treated with a predetermined dose of a SOST antagonist candidate.
This can be accomplished by any suitable method, but is preferably performed on live animals to analyze the bone mineral content. […] A SOST antagonist candidate suitable for use as a SOST antagonist is identified by noting significant bone formation in the test animal when compared to the control animal. Bone formation in the test bone(s) of the test animal can be 0.5%, 1, 5, 10, 20, 30, 40, 50, 60, 70, 80, 90, 100, 200, 300, 400, 500, 600, 700, 800, 900 or 1000% more bone formation than is present in the same bones of the control animal. More preferably, bone formation can be 20%, most preferably 30% or 40%. Where necessary, levels of bone formation can be calculated by determining the volume of bone formation present in each animal. Calculations can be performed by constructing a 3-dimensional image of the bone formation and calculating the volume from the image with the aid of e.g., histomorphometry. […]

With `CNCCC=C1c2ccccc2CCc2ccccc21` [nortriptyline] the “modulation of the Wnt pathway” value (Wnt pathway) was “modulating the Wnt pathway” and the “bone growth (quantity of bone formation present)” value (SOST) was “promoting bone growth”.
